Source: patent US20250144186A1, “NOVEL THERAPEUTIC USES OF GARDNERELLA ENDOLYSINS” (priority 2022, published 2025)
≈ marks a conversion by molar mass, not a printed value. Where two headings read alike, the source gives them in different places.

How the values were obtained:
Gardnerella leopoldii = assay: MIC / MBC99.5 assessment in suspension; type: cell-based; conditions: Gardnerella leopoldii; for MIC: read-out: MIC; for MBC: read-out: MBC99.5
Protocol: (§1) The minimum inhibitory concentration (MIC), which is a standard measure of the activity of antimicrobials, was determined according to the Clinical and Laboratory Standards Institute protocol (2018) Methods for Antimicrobial Susceptibility Testing of Anaerobic Bacteria (Carpenter et al., 2018). […] Controls for growth in the absence of antimicrobials were also included. OD600 was recorded by a microplate reader (Tecan, Grodig, Austria) after incubation at 37° C. for 48 h or, for some fast-growing strains, after incubation for 24 h. Absence of growth was defined as OD600≤0.14. […] MIC readout and MBC99.5 spotting were performed after 72 h incubation for H2B10B11.
(§2) However, topical intravaginal antibiotic administration is recommended for BV therapy, which allows to reach concentrations of active ingredients in the mg/mL range. […] Abbreviations: n.d., not determined; SJHB, St. Jan Hospital Bruges.
(§3) MIC90 is defined as the MIC value for 90% of the tested strains. For PM-477 (H2B10), the resistance breakpoint is not defined, therefore a “% resistant” is not defined (n.d.).

Gardnerella piotii = assay: MIC / MBC99.5 assessment in suspension; type: cell-based; conditions: Gardnerella piotii; for MIC: read-out: MIC
Protocol: as §1, §2, §3

Gardnerella swidsinskii = assay: microbe, parasite or virus in culture; type: cell-based; conditions: Gardnerella swidsinskii
Protocol: as §1, §2, §3

Gardnerella vaginalis = assay: microbe, parasite or virus in culture; type: cell-based; conditions: Gardnerella vaginalis
Protocol: as §1, §2, §3

All Gardnerella = assay: MIC assessment in suspension, panel of 22 strains; type: cell-based, Gardnerella spp.
Protocol: as §1, §2, §3

[1] = tested on: Gardnerella type strains and patient isolates; assay: MIC and MBC99.5 on about 100 type strains and patient isolates of various origins; type: cell-based, Gardnerella spp.
Protocol: as §1
MIC and MBC99.5 of H2B10B11 on a panel of about 100 Gardnerella type strains and patient isolates from various geographic origins were determined following the CLSI protocol. […] For a subset of fast-growing strains thereof and for some additional strains, MIC determination was performed after 48 h of incubation to bridge the results to earlier assessed MIC values (FIG. 6). In total, MIC was determined for 104 different strains (the MIC of 15 strains was determined both, after 48 h and 72 h). […] The number of strains in each group is stated on the right site of the graph.

[2] = tested on: Gardnerella strains from vaginal swabs of BV patients; assay: MIC and MBC99.5 on 18 in-house BV patient isolates; type: cell-based, Gardnerella spp.
Protocol: as §1

[3] = G. leopoldii (BV13) UGent BV13.2, suspension
[4] = G. leopoldii (BV13) UGent BV13.2
[5] = G. leopoldii (Gl11) UGent 09.48, suspension
[6] = G. leopoldii (Gl11) UGent 09.48
[7] = G. piotii (FB041) UGent FB041, suspension
[8] = G. piotii (Gp17) UGent 18.01(T)
[9] = G. piotii (Gp17) UGent 18.01(T), suspension
[10] = G. piotii (Gp22) UGent 21.28, suspension
[11] = G. piotii (P80275) UGent P80275
[12] = G. piotii (P80275) UGent P80275, suspension
[13] = G. swidsinskii (BV7) UGent BV7.1, suspension
[14] = G. swidsinskii (Gs23) GS 10234, suspension
[15] = G. swidsinskii (Gs24) GS 9838-1(T), suspension
[16] = read-out: MBC99.5, G. swidsinskii (BV7) UGent BV7.1
[17] = read-out: MBC99.5, G. swidsinskii (Gs23) GS 10234
[18] = read-out: MBC99.5, G. swidsinskii (Gs24) GS 9838-1(T)
[19] = ATCC14018, 24 h, read-out: MBC99.5, G. vaginalis (Gv9) ATCC 14018(T), reduces CFU by 99.5% within 24 h
[20] = ATCC14018, G. vaginalis (Gv9) ATCC 14018(T), suspension
[21] = G. vaginalis (BV50) UGent BV50.1, suspension
[22] = G. vaginalis (FB049) UGent FB049-01, suspension
[23] = read-out: MBC99.5, G. vaginalis (BV111) UGent BV111.5
[24] = read-out: MBC99.5, G. vaginalis (FB049) UGent FB049-01
[25] = MIC after 72 h, unpaired t-test of log2-transformed data

Molecule: CCS(=O)(=O)CCn1c([N+](=O)[O-])cnc1C [TDZ, tinidazole]
- MIC (Gardnerella leopoldii; [3]): > 128 µg/mL
- MBC (Gardnerella leopoldii; [4]): 128 µg/mL (≈ 518 µM)
- MIC (Gardnerella leopoldii; [5]): 128 µg/mL (≈ 518 µM)
- MBC (Gardnerella leopoldii; [6]): > 128 µg/mL
- MBC (Gardnerella piotii; G. piotii (FB041) UGent FB041): 128 µg/mL (≈ 518 µM)
- MIC (Gardnerella piotii; [7]): 64 µg/mL (≈ 259 µM)
- MBC (Gardnerella piotii; [8]): > 128 µg/mL
- MIC (Gardnerella piotii; [9]): 64 µg/mL (≈ 259 µM)
- MBC (Gardnerella piotii; G. piotii (Gp22) UGent 21.28): > 128 µg/mL
- MIC (Gardnerella piotii; [10]): > 128 µg/mL
- MBC (Gardnerella piotii; [11]): 128 µg/mL (≈ 518 µM)
- MIC (Gardnerella piotii; [12]): 32 µg/mL (≈ 129 µM)
- MIC (Gardnerella swidsinskii; [13]): 128 µg/mL (≈ 518 µM)
- MIC (Gardnerella swidsinskii; [14]): > 128 µg/mL
- MIC (Gardnerella swidsinskii; [15]): > 128 µg/mL
- MBC (Gardnerella swidsinskii; [16]): > 128 µg/mL
- MBC (Gardnerella swidsinskii; [17]): > 128 µg/mL
- MBC (Gardnerella swidsinskii; [18]): > 128 µg/mL
- MBC (Gardnerella vaginalis; [19]): > 128 µg/mL
- MIC (Gardnerella vaginalis; [20]): 128 µg/mL (≈ 518 µM)
- MIC (Gardnerella vaginalis; [21]): 64 µg/mL (≈ 259 µM)
- MIC (Gardnerella vaginalis; [22]): 8 µg/mL (≈ 32.4 µM)
- MIC (Gardnerella vaginalis; G. vaginalis (FB061) UGent FB061-03, suspension, read-out: MIC): 4 µg/mL (≈ 16.2 µM)
- MBC (Gardnerella vaginalis; G. vaginalis (FB061) UGent FB061-03, read-out: MBC99.5): 32 µg/mL (≈ 129 µM)
- MIC (Gardnerella vaginalis; G. vaginalis (Gv1) UGent 09.07, suspension, read-out: MIC): > 128 µg/mL
- MBC (Gardnerella vaginalis; G. vaginalis (Gv1) UGent 09.07, read-out: MBC99.5): > 128 µg/mL
- MIC (Gardnerella vaginalis; G. vaginalis (Gv5) UGent 09.01, suspension, read-out: MIC): 4 µg/mL (≈ 16.2 µM)
- MBC (Gardnerella vaginalis; G. vaginalis (Gv5) UGent 09.01, read-out: MBC99.5): 8 µg/mL (≈ 32.4 µM)
- MIC (Gardnerella vaginalis; G. vaginalis (Gv8) UGent 25.49, suspension, read-out: MIC): 4 µg/mL (≈ 16.2 µM)
- MBC (Gardnerella vaginalis; G. vaginalis (Gv8) UGent 25.49, read-out: MBC99.5): 32 µg/mL (≈ 129 µM)
- MBC (Gardnerella vaginalis; [23]): 128 µg/mL (≈ 518 µM)
- MBC (Gardnerella vaginalis; [24]): 64 µg/mL (≈ 259 µM)

Molecule: CCC[C@@H]1C[C@@H](C(=O)N[C@@H]([C@H]2O[C@H](SC)[C@H](O)[C@@H](O)[C@H]2O)[C@H](C)Cl)N(C)C1 [CLI, clindamycin]
- MIC (Gardnerella leopoldii; [3]): 0.5 µg/mL (≈ 1.18 µM)
- MBC (Gardnerella leopoldii; [4]): 1 µg/mL (≈ 2.35 µM)
- MIC (Gardnerella leopoldii; G. leopoldii (BV217) UGent BV217.1, suspension): 0.5 µg/mL (≈ 1.18 µM)
- MBC (Gardnerella leopoldii; G. leopoldii (BV217) UGent BV217.1): 1 µg/mL (≈ 2.35 µM)
- MIC (Gardnerella leopoldii; [5]): 0.5 µg/mL (≈ 1.18 µM)
- MBC (Gardnerella leopoldii; [6]): 1 µg/mL (≈ 2.35 µM)
- N resistant (Gardnerella leopoldii; N=3, resistance ≥32 μg/mL MDZ, ≥8 μg/mL CLI): 0
- MIC Range (Gardnerella leopoldii; N=3 strains): 0.5 µg/mL (≈ 1.18 µM)
- MIC90 (Gardnerella leopoldii; N=3 strains, read-out: MIC90): 0.5 µg/mL (≈ 1.18 µM)
- MBC (Gardnerella piotii; G. piotii (BV049) UGent BV049.1): 0.125 µg/mL (≈ 0.294 µM)
- MIC (Gardnerella piotii; G. piotii (BV140) UGent BV140.2, suspension): 2 µg/mL (≈ 4.71 µM)
- MBC (Gardnerella piotii; G. piotii (BV154) UGent BV154.1): 0.5 µg/mL (≈ 1.18 µM)
- MIC (Gardnerella piotii; G. piotii (BV154) UGent BV154.1, suspension): 0.5 µg/mL (≈ 1.18 µM)
- MBC (Gardnerella piotii; G. piotii (FB041) UGent FB041): 2 µg/mL (≈ 4.71 µM)
- MIC (Gardnerella piotii; [7]): 1 µg/mL (≈ 2.35 µM)
- MBC (Gardnerella piotii; [8]): 1 µg/mL (≈ 2.35 µM)
- MIC (Gardnerella piotii; [9]): 0.5 µg/mL (≈ 1.18 µM)
- MBC (Gardnerella piotii; G. piotii (Gp22) UGent 21.28): 0.5 µg/mL (≈ 1.18 µM)
- MIC (Gardnerella piotii; [10]): 0.25 µg/mL (≈ 0.588 µM)
- MBC (Gardnerella piotii; [11]): 1 µg/mL (≈ 2.35 µM)
- MIC (Gardnerella piotii; [12]): 0.5 µg/mL (≈ 1.18 µM)
- N resistant (Gardnerella piotii; N=7, resistance ≥32 μg/mL MDZ, ≥8 μg/mL CLI): 0
- MIC Range (Gardnerella piotii; N=7 strains): 0.125-2^ μg/mL
- MIC90 (Gardnerella piotii; N=7 strains, read-out: MIC90): 2 µg/mL (≈ 4.71 µM)
- MIC (Gardnerella piotii; G. piotii (BV049) UGent BV049.1, suspension): 0.125 µg/mL (≈ 0.294 µM)
- MBC (Gardnerella piotii; G. piotii (BV140) UGent BV140.2): 64 µg/mL (≈ 151 µM)
- MIC (Gardnerella swidsinskii): 0.125 µg/mL (≈ 0.294 µM)
- MIC90 (Gardnerella swidsinskii): 0.5 µg/mL (≈ 1.18 µM)
- MIC (Gardnerella swidsinskii; [13]): 0.5 µg/mL (≈ 1.18 µM)
- MIC (Gardnerella swidsinskii; [14]): 0.25 µg/mL (≈ 0.588 µM)
- MIC (Gardnerella swidsinskii; [15]): < 0.06 µg/mL
- MIC Range (Gardnerella swidsinskii; N=4 strains): <0.06 to 0.5 µg/mL
- MBC (Gardnerella swidsinskii; [16]): 1 µg/mL (≈ 2.35 µM)
- MBC (Gardnerella swidsinskii; read-out: MBC99.5, G. swidsinskii (BV139) UGent BV139.3): 0.25 µg/mL (≈ 0.588 µM)
- MBC (Gardnerella swidsinskii; [17]): 0.25 µg/mL (≈ 0.588 µM)
- MBC (Gardnerella swidsinskii; [18]): 0.5 µg/mL (≈ 1.18 µM)
- MIC90 (Gardnerella vaginalis): 0.5 µg/mL (≈ 1.18 µM)
- MBC (Gardnerella vaginalis; [19]): 0.5 µg/mL (≈ 1.18 µM)
- MIC (Gardnerella vaginalis; [20]): 0.25 µg/mL (≈ 0.588 µM)
- MIC (Gardnerella vaginalis; [21]): 0.25 µg/mL (≈ 0.588 µM)
- MIC (Gardnerella vaginalis; [22]): 0.5 µg/mL (≈ 1.18 µM)
- MIC Range (Gardnerella vaginalis; N=8 strains): <0.06 to 0.5 µg/mL
- MBC (Gardnerella vaginalis; read-out: MBC99.5, G. vaginalis (BV50) UGent BV50.1): 0.5 µg/mL (≈ 1.18 µM)
- MBC (Gardnerella vaginalis; [23]): 2 µg/mL (≈ 4.71 µM)
- MBC (Gardnerella vaginalis; [24]): 1 µg/mL (≈ 2.35 µM)
- N resistant (All Gardnerella; N=22, resistance ≥32 μg/mL MDZ, ≥8 μg/mL CLI): 0
- MIC Range (All Gardnerella; N=22 strains): <0.06-2^ μg/mL
- MIC90 (All Gardnerella; N=22 strains, read-out: MIC90): 0.5 µg/mL (≈ 1.18 µM)

B1: H2B10B11: recombinant endolysin, SEQ ID NO: 37; differs from H2B10 in one amino acid exchange in one of the binding domains (protein)
chain: MSKRGIDVSEWQGDIDFNAVKASGVEFVIIRAGYGIGCKDKWFEQNYRKAKTCGLDVGAYWYSYANSGFEAAEEAQSCVNMLSGKSFEYPVYFDLEEKSQLNRGRAFCDSLITGFCNKLESCGYYAGFYTSLSTANNLVSAHVRNRYALWIAQWNTHCSYQGSYGLWQYSSSGSVPGVAGRVDMDYAYVDYPSIIKNVGLNGYKNGGSYTAPQISSIDEVAREVINGDWGNGNERKQRLTSAGYDYASVQNKVNELLGVKAYRKSVDELAREVIRGTWGNGSTRKQRLTQAGYDYDAVQKRVNELL
modifications: H2B10B11
- Susceptibility of BV patient isolates of various origins (FIG. 6) [1]: susceptible
- MIC and MBC99.5 values, readout after 48 h compared to 72 h ([1]; 15 strains determined both after 48 h and 72 h): one concentration lower
- difference between the MICs of G. vaginalis and G. leopoldii/swidsinskii [1, 25]: no significant difference
- difference in susceptibility between isolates from African and European BV patients [1, 25]: no significant difference
- median MBC99.5 ([2]; 18 in-house BV patient isolates): 8 µg/mL
- median MIC ([2]; 18 in-house BV patient isolates, H2B10B11 read after 72 h): 2 µg/mL
- MIC90 ([2]; panel of 18 BV patient isolates): 4.4 µg/mL
- Lytic effect on MDZ-resistant Gardnerella isolates (FIG. 5) ([2]; panel of n=18 BV patient isolates): maintained
- inhibiting concentration (MIC) ([2]; the 10 MDZ-resistant isolates of the panel of 18): 4 to 8 µg/mL
